Test results published in PMC6974524 (Frontiers in Microbiology, 2020).
≈ marks a conversion by molar mass, not a printed value.

Legend:
Mtb-KD = format: cell-based, Mycobacterium tuberculosis
clinical Mtb strains = test: microbe, parasite or virus in culture; format: cell-based, Mycobacterium tuberculosis; conditions: Mycobacterium tuberculosis; range over standard and clinical strains (abstract); read-out: MIC for the standard and clinical drug-resistant Mtb strains

SMILES | MIC, ddlA knocked-down (Mtb-KD) [µg/mL] | MIC, ddlA overexpressed (Mtb-KD) [µg/mL] | MIC (clinical Mtb strains) [µg/mL]
N[C@@H]1CON=C1O [DCS, D-cycloserine, reference compound] | 1 (≈ 9.79 µM) | 32 (≈ 313 µM) | 
OC1(c2ccc(OC(F)F)cc2)C[N+](c2ccccc2)=C2CCCCN21 (centres unmarked) [IMB-0283] | 0.25 | 2 | 0.25 to 4
